The source of these data is patent US10449213B2, “Combinatorial approach to treating Alzheimer's disease” (Florida State University Research Foundation, Inc., priority 2011, dated 2019).

Read-outs that look alike come from different tables or passages of the source.

The target in test [1] is T1, Aβ(1-40) peptide (Homo sapiens, UniProt P05067).
T1 construct: Synthetic Aβ(1-40) peptide was purchased from Biopeptide, Inc; purchased Biopeptide, Inc; host or cells: chemical synthesis
Nature of the test: Intrinsic tyrosine fluorescence titration of Aβ(1-40) with vitamin B12. The conditions noted are these: 50 μM in PBS, 25° C., 1:1 binding stoichiometry, read-out: binding constant, KD. The procedure: Samples of Aβ(1-40) were reconstituted in phosphate buffer saline (PBS) (137 mM NaCl, 2.7 mM KCl, 10 mM Na2HPO4, 2 mM KH2PO4, pH 7.4), except in surface plasmon resonance experiments, as described below. Immediately after reconstitution into PBS, the pH of the solution was adjusted to 10, allowing for solubilization of the peptide. The pH was then readjusted to 7.4, followed by filtration through a 0.22 μm supor membrane filter. Concentrations of Aβ(1-40) were determined using UV-Vis spectroscopy (Cary 300 spectrophotometer, Varian, Inc) and an extinction coefficient of 1,490 M^−1 cm^−1 at 280 nm. Aβ(1-40) samples used in fluorescence experiments to examine peptide/B12 binding included freshly prepared, monomeric Aβ species and “aged” Aβ, incubated for seven days and containing high-molecular weight species.
Preparation of Vitamin B12 Samples. […] Concentrations of B12 were determined using UV-Vis spectroscopy (Cary300 spectrophotometer, Varian, Inc) and an extinction coefficient of 4,900 M^−1 cm^−1 at 525 nm.
Intrinsic Tyrosine Fluorescence Spectroscopy Experiments on Amyloid-Beta Peptide in the Presence of Vitamin B12. Intrinsic tyrosine fluorescence was measured as previously described by Lakowicz in Principles of Fluorescence Spectroscopy. […] The binding constant, KD, was calculated using equation (1) in SigmaPlot 9.0 (Systat Software, Inc.) assuming 1:1 binding stoichiometry. […]

A further test concerns the target T2, Aβ(1-40) (Homo sapiens, UniProt P05067).
T2 construct: Synthetic Aβ(1-40) peptide was purchased from Biopeptide, Inc; purchased Biopeptide, Inc; host or cells: chemical synthesis
As to the kind of experiment: Surface plasmon resonance (Biacore T-200), immobilized Aβ(1-40). As to conditions: freshly prepared Aβ(1-40) immobilized on CM5 chip, 25° C., fit to 1:1 binding model; read-out: binding constant (SPR). The procedure: Surface Plasmon Resonance (SPR) Experiments. The binding of Aβ(1-40) and vitamin B12 was analyzed by SPR using a Biacore T-200 optical biosensor (Biacore/GE Healthcare). The Aβ peptide was immobilized on CM5 sensor chips using amine coupling chemistry. Briefly, the carboxymethyl dextran surface of a CM5 sensor chip was activated with a 1:1 mixture of 0.4 M 1-ethyl-3-(3-dimethylaminopropyl)-carbodiimide (EDC) and 0.1 M N-hydroxysuccinimide (NHS) at 25° C. A peptide surface (400-800 RU) was created by pulsing Aβ in 10 mM sodium acetate at pH 4.5 over the flow cell. The remaining binding sites on the dextran surface were blocked with […], pH 8.5. A reference surface was activated and blocked as outlined above.
Binding experiments were carried out using HBS-EP+ running buffer (0.1 M Hepes, 1.5 M NaCl, 30 mM EDTA, 0.05% v/v surfactant P-20, pH 7.4) at 25° C. All components were 0.22 μm-filtered prior to use. […] Data were analyzed using T200 BiaEvaluation 1.0 (Biacore) software and fit to a 1:1 binding model.
In the SPR experiments, freshly prepared Aβ(1-40) was immobilized on a chip. […] Referring to FIG. 7, a concentration dependent change in the refractive index at the surface of the chip was detected. This change, reflective of the Aβ peptide/B12 interaction, was monitored in real time. […]
In general terms: In SPR one partner is held on a chip, and binding of the other changes the refractive index at the surface.

Test [2] addresses T1, Aβ(1-40) peptide. Nature of the test: Thioflavin T fluorescence, fibril formation by Aβ(1-40). The test is classed as biochemical. As to conditions: Aβ(1-40) 30 μM, 37° C. As for the experimental part:
Thioflavin T Fluorescence Spectroscopy Experiments on Amyloid-Beta Peptide in the Presence of Vitamin B12. The Fluorescence signal was measured as previously described using a Biotek Flx800 fluorescence microplate reader. Aβ(1-40) peptide samples (30 μM) were incubated at 37° C. in the presence or absence of B12. Following incubation, ThT was added to a final concentration of 10 μM as a probe for fibril formation by Aβ(1-40). All fluoresce readings were corrected for 10 mM sodium phosphate buffer contribution. Thioflavin T (ThT) (Sigma Aldrich) was reconstituted in Nanopure water, aliquoted, and stored at −20° C. Concentration of ThT was determined using UV-Vis spectroscopy (Cary300 spectrophotometer, Varian, Inc) and an extinction coefficient of 36,000 M^−1 cm^−1 at 412 nm.

A further test concerns hippocampal neurons. As to the kind of experiment: Aβ-induced neuronal cell death in hippocampal cell culture, Trypan Blue counting. In kind it is cell-based, Wistar rat. As to conditions: pre-aggregated Aβ(1-40) 25 μM, B12 50, 25 or 12.5 μM, 72 hours. The procedure:
Neuronal Cell Culture Experiments. Neuronal cell culture experiments were conducted using methodologies described previously by Lee, et al in Cell, Vol. 111(2), pages 219-230 (2002); Lei, et al in EMBO J, Vol. 21(12), pages 2977-2989 (2002); Xin, et al in J Neurosci, Vol. 25(1), pages 139-48 (2005); and Xin, et al in European Journal of Neuroscience, Vol. 21(3), pages 622-636 (2005).
Briefly, hippocampal tissue was dissected from Wistar rat embryos (18 days gestation or E18) at 4° C. Dissociated hippocampal neurons were plated at a density of approximately 2.0×10^4 cells/cm^2 onto 35 mm culture dishes coated with poly-D-lysine. Neurons were matured in culture for 21 days in vitro in NEUROBASAL® media (Invitrogen) supplemented with B27 (2%), bFGF2 (2 ng/mL) and L-glutamine (0.5 mM). The Aβ(1-40) was dissolved in DMSO, followed by dilution into culture medium (final DMSO concentration was 1%), and incubation at 37° C. for three days to form Aβ(1-40) oligomeric species. […]
Trypan Blue Staining and Cell Counting. […] Five random fields, one from each corner and one from the center of the dish, were counted for both live and dead cells at 63× magnification to obtain a percentage of cell death. […]
The physiological relevance of the B12/Aβ interaction was evaluated using neuronal cell culture experiments. […]

T1 sequence (P05067 672-711 limits assumed): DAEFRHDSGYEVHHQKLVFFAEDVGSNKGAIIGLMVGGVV
T2 sequence (P05067 672-711 limits assumed): as above

Take `C/C1=C2/[N-][C@H]([C@H](CC(N)=O)[C@@]2(C)CCC(=O)NC[C@@H](C)OP(=O)([O-])O[C@H]2[C@@H](O)[C@@H](n3cnc4cc(C)c(C)cc43)O[C@@H]2CO)[C@]2(C)N=C(/C(C)=C3N=C(/C=C4N=C1[C@@H](CCC(N)=O)C\4(C)C)[C@@H](CCC(N)=O)[C@]\3(C)CC(N)=O)[C@@H](CCC(N)=O)[C@]2(C)CC(N)=O.[Co+3].[OH-]` [vitamin B12, hydroxocobalamin]: the Kd was determined as 87 ± 2.7 µM at Aβ(1-40) peptide [1] (monomeric (freshly prepared) Aβ(1-40)); 96.1 ± 3.5 µM at Aβ(1-40) peptide [1] (self-associated (aged, seven days) Aβ(1-40)); 132 µM on Aβ(1-40). The “ThT fluorescence after addition to pre-formed Aβ(1-40) aggregates (fibril dissociation)” value on Aβ(1-40) peptide [2] (B12 added to fibrils formed in its absence) is given as “reduction of the ThT fluorescence”. For the same compound, at Aβ(1-40) peptide [2] (incubated with B12), the “ThT fluorescence signal of Aβ(1-40) incubated in the presence of vitamin B12 (self-association)” value is on record as “no increase in the ThT fluorescence signal”. The “neuronal cell death upon addition of amyloid-beta peptide” value in the test on hippocampal neurons was “alleviated”.
